Assay results taken from patent publication US7541021B2, “Process for preparation of a sterile suspension of corticosteroid particles for the administration by inhalation” (Chiesi Farmaceutici S.p.A., priority 2002, dated 2009).

Columns and labels:
[1] = Elimination of 17-BMP after nebulisation of aqueous BDP suspensions versus pressurised aerosol suspensions; type: in vivo; conditions: after aqueous suspensions of BDP by nebulisation, compared with suspension formulations as pressurised aerosols
Description: It has also been observed that due to the formation of the monoester in the lung cells, the elimination half-life and the mean residence time of 17-BMP are longer after the administration of aqueous suspensions of BDP by nebulisation than formulations in suspension administered in the form of pressurised aerosols.

[2] = tested on: microsomes of human lung cells; assay: Formation of fatty acid esters of 17-BMP in lung microsomes; type: in vitro ADME
[3] = Particle size of micronised BDP by Malvern apparatus; type: physicochemical; conditions: micronised powder
Experimental: The dimensional characteristics of the particles were also evaluated by using a Malvern apparatus. This type of test exploits the diffraction of a laser beam by the particles to determine the size distribution of the particles in suspension. The parameter considered is the median volumetric diameter in μm of 10%, 50% and 90% of the particles, expressed as d(v,0.1), d(v,0.5) and d(v,0.9) respectively, which is determined by assuming that the particles have a geometrical shape equivalent to a sphere. Advantageously, in the suspension formulation of the invention, the d(v,0.9) after sonication is less than 8 μm and the d(v,0.5) is comprised between 2 and 3.5 μm.

[4] = Apparent volumes and densities (European Pharmacopoeia 2.9.15) of micronised BDP powder; type: physicochemical; conditions: for dv, apparent density before settling: 100 g in 250 ml cylinder; for ds, apparent density after packing: after compacting
Experimental: The apparent volumes and densities were measured according to the European Pharmacopoeia, 4th edition, paragraph 2.9.15. 100 g of the test substance is introduced into a dry 250 ml cylinder without compacting it. The unsettled apparent volume (Vo) is read off, then 10, 500 and 1250 taps are performed, and volumes (V10, V500 and V1250) are read. If the difference between V500 and V1250 is greater than 2 ml, 1250 further taps are performed (V2500).

| Structure (SMILES) | elimination half-life [1] | mean residence time [1] | Formation of stable esters with long-chain fatty acids such as oleic acid [2] | Particle size d (v, 0.1) [3] [μm] | Particle size d (v, 0.5) [3] [μm] | Particle size d (v, 0.9) [3] [μm] | Cs, packing capacity (difference between V10 and V500) [4] [mL] | dv, apparent density before settling [4] [g/mL] | ds, apparent density after packing [4] [g/mL] |
| --- | --- | --- | --- | --- | --- | --- | --- | --- | --- |
| CCC(=O)O[C@]1(C(=O)CO)[C@@H](C)C[C@H]2[C@@H]3CCC4=CC(=O)C=C[C@]4(C)[C@@]3(Cl)[C@@H](O)C[C@@]21C [17-BMP, beclomethasone-17-monopropionate] | longer | longer | are formed |  |  |  |  |  |  |
| CCC(=O)OCC(=O)[C@@]1(OC(=O)CC)[C@@H](C)C[C@H]2[C@@H]3CCC4=CC(=O)C=C[C@]4(C)[C@@]3(Cl)[C@@H](O)C[C@@]21C [Irradiated BDP, beclomethasone dipropionate] |  |  |  | 0.48 | 1.81 | 5.73 | 12 | 0.32 | 0.42 |
| CCC(=O)OCC(=O)[C@@]1(OC(=O)CC)[C@@H](C)C[C@H]2[C@@H]3CCC4=CC(=O)C=C[C@]4(C)[C@@]3(Cl)[C@@H](O)C[C@@]21C [Non-irradiated BDP, beclomethasone dipropionate] |  |  |  | 0.49 | 1.91 | 5.98 | 16 | 0.21 | 0.27 |
